From article PMC4274894, “The poplar Phi class glutathione transferase: expression, activity and structure of GSTF1” (Frontiers in Plant Science, 2014)
Where two headings read alike, the source gives them in different places. Each block holds one compound with its values, some of them ahead of it.

Assays:
PttGSTF1 [1] = target: T1, PttGSTF1 (Populus trichocarpa, UniProt A9PHH6); test: spectrophotometric GSH-conjugation assay ([…] nm), Michaelis-Menten fit; type: biochemical; details: apparent Km; 0.7 mM GSH; 100 mM phosphate pH 6.5; 25°C; read-out: HNE
T1 construct: initiator Met cleaved, residues Ala2-Ala215; 24192 Da (WT); homodimer; differs from the P. trichocarpa GSTF1 by Val33 (Ile) and Arg86 (Lys)
T1 sequence (A9PHH6 entry or part of it): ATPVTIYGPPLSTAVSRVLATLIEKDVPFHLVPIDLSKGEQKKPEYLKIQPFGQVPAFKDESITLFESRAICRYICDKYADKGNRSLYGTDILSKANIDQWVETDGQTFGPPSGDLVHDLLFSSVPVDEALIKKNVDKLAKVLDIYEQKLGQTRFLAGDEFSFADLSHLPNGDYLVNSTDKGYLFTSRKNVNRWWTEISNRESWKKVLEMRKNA

PttGSTF1 [2] = target: T2, PttGSTF1 (Populus trichocarpa, UniProt A9PHH6, S13A, form not given); test: as above; type: biochemical; details: apparent Km; 1 mM GSH; 100 mM sodium phosphate pH 7.5; 25°C; read-out: PNP-butyrate
T2 construct: initiator Met cleaved, residues Ala2-Ala215; 24192 Da (WT); homodimer; differs from the P. trichocarpa GSTF1 by Val33 (Ile) and Arg86 (Lys)
T2 sequence (A9PHH6 entry or part of it S13A, form open): as the sequence (A9PHH6 entry or part of it) above, with S12A counted along it

PttGSTF1 [3] = target: T1, PttGSTF1; test: as above; type: biochemical; details: apparent Km; 1 mM GSH; 100 mM sodium phosphate pH 7.5; 25°C; read-out: PNP-butyrate
[4] = target: Populus tremula × P. tremuloides glutathione transferase Phi 1 (PttGSTF1) (Populus tremula × P. tremuloides); test: SEC; calibrated Superdex 200 10/300, 30 mM Tris-HCl pH 8.0, 200 mM NaCl, 100 μg of purified protein injected, 0.5 ml/min; standards 6500-700,000 Da
[5] = target: PttGSTF1 S13A (Populus tremula × P. tremuloides); test: as above
[6] = target: PttGSTF1 S13C (Populus tremula × P. tremuloides); test: as above

- Km (PttGSTF1 [1]): 67.1 ± 6.6 µM
Compound: CCCCCC(O)/C=C/C=O (stereo not drawn) [HNE, 4-hydroxy-2-nonenal]

- Km (PttGSTF1 [2]): 1510 ± 120 µM
- Km (PttGSTF1 [3]): 360 ± 32.2 µM
Compound: CCCC(=O)Oc1ccc([N+](=O)[O-])cc1 [PNP-butyrate]

- stoichiometry N [4]: 2
Compound: Populus tremula × P. tremuloides glutathione transferase Phi 1 (PttGSTF1) (enzyme)

- stoichiometry N [5]: 2
Compound: PttGSTF1 S13A (enzyme)

- stoichiometry N [6]: 2
Compound: PttGSTF1 S13C (enzyme)
